These results are taken from patent US9227967B2, “Inhibitor compounds of semicarbazide-sensitive amine oxidases” (Proximagen Limited, priority 2010, dated 2016).

Counter-ions that a name gives are not always drawn. Where only a bound is given, the exact number is not on record here.

The target of this test is T1, human SSAO (Homo sapiens, UniProt Q16853).
T1 construct: made in house
T1 sequence (Q16853 29-763 limits assumed): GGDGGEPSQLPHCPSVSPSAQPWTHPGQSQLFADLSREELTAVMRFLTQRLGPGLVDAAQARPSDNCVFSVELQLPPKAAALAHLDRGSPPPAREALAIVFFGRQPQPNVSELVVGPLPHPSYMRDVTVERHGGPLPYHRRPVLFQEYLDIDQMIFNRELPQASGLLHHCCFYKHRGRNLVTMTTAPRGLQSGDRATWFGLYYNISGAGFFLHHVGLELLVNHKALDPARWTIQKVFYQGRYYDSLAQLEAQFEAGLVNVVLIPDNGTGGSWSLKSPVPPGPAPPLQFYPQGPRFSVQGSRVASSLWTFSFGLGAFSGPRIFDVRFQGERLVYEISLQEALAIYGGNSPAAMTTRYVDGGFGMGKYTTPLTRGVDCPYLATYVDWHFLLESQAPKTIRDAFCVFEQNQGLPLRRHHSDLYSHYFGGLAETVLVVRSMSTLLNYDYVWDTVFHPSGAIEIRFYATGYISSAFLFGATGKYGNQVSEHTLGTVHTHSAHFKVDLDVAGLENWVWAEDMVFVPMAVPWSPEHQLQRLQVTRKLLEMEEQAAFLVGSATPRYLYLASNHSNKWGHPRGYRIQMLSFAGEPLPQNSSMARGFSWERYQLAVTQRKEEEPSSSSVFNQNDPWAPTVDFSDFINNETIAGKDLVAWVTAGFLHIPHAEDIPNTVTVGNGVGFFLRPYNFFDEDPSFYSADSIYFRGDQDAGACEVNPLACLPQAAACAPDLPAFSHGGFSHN
In words: SSAO enzyme inhibition assay (benzylamine substrate; HRP-coupled hydrogen peroxide detection or 14C-benzaldehyde detection). Type of test: biochemical. Conditions: purified recombinantly expressed human SSAO, benzylamine as substrate, r.t.; read-out: SSAO inhibitory activity IC50. The method, boiled down:
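Purified recombinant human SSAO, pre-incubated ~15 min at r.t. with compound, then benzylamine added; final DMSO ≦2%. HRP-coupled Amplex format in 50 mM sodium phosphate pH 7.4: enzyme 1 μg/ml, benzylamine 100 μM (≈Km), fluorescence over 1-2 h; 14C format: enzyme 10 μg/ml, benzylamine 40 μM, 1 h. IC50 from four-parameter fit.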
`Clc1ccc(-n2cc(C3CCOCC3)c3ncncc32)cc1` [Compound 98, 5-(4-Chlorophenyl)-7-(oxan-4-yl)-5H-pyrrolo[3,2-d]pyrimidine]: the concentration for half-maximal inhibition (IC50) fell in the range of 100 to 500 nM.
For `NCCC(=O)N1CCC(c2cn(-c3ccc(Cl)cc3)c3cnccc23)CC1` [Compound 17, 3-Amino-1-{4-[1-(4-chlorophenyl)-1H-pyrrolo[2,3-c]pyridin-3-yl]piperidin-1-yl}propan-1-one hydrochloride] the value was below 100 nM; for `O=C(CO)N1CCC(c2cn(-c3ccc(Cl)cc3)c3cnccc23)CC1` [Compound 15, 1-{4-[1-(4-Chlorophenyl)-1H-pyrrolo[2,3-c]pyridine-3-yl]piperidin-1-yl}-2-hydroxyethan-1-one], below 100 nM.
For `Clc1ccc(-n2cc(CN3CCOCC3)c3ccncc32)cc1` [Compound 29, 4-{[1-(4-Chlorophenyl)-1H-pyrrolo[2,3-c]pyridin-3-yl]methyl}morpholine] the value was 500 to 2500 nM; for `Cc1ccc(-n2nc(N3CC4CCC(C3)O4)c3ccncc32)cc1` [Compound 63, 3-[1-(4-Methylphenyl)-1H-pyrazolo[3,4-c]pyridin-3-yl]-8-oxa-3-azabicyclo[3.2.1]octane], below 100 nM.
In the case of `O=C(CO)N1CCC(n2cc(-c3ccc(Cl)c(Cl)c3)c3cnccc32)CC1` [Compound 7, 1-{4-[3-(3,4-Dichlorophenyl)-1H-pyrrolo[3,2-c]pyridin-1-yl]piperidin-1-yl}-2-hydroxyethan-1-one] it was 500 to 2500 nM; in that of `COc1cc2c(C3CCOCC3)nn(-c3ccc(Cl)cc3)c2cn1` [Compound 96, 1-(4-Chlorophenyl)-5-methoxy-3-(oxan-4-yl)-H-pyrazolo[3,4-c]pyridine], 500 to 2500 nM; in that of `CCCCN1CCC(c2nn(-c3ccc(Cl)cc3)c3cnccc23)CC1` [Compound 90, 1-Butyl-4-[1-(4-chlorophenyl)-1H-pyrazolo[3,4-c]pyridin-3-yl]piperidine], 500 to 2500 nM.
As for `Cc1ccc(-n2nc(C3CCOCC3)c3ccncc32)c(F)c1` [Compound 43, 1-(2-Fluoro-4-methylphenyl)-3-(oxan-4-yl)-1H-pyrazolo[3,4-c]pyridine], the IC50 is 100 to 500 nM.
As to `Oc1cncc2c1c(C1CCOCC1)nn2-c1ccc(Cl)cc1` [Compound 95, 1-(4-Chlorophenyl)-3-(oxan-4-yl)-1H-pyrazolo[3,4-c]pyridin-4-ol], the IC50 lay within 100 to 500 nM.

For orientation: IC50 means the concentration that inhibits the measured activity by half.
